# Source: patent publication US20240050406A1, “COMPOSITION COMPRISING OXIRACETAM FOR PREVENTING OR TREATING MUSCULAR DISEASE” (KSB TUGEN INC., priority 2021, published 2024)
# Legend:
# [1] = system: animal model in which muscular atrophy was induced by dexamethasone; assay: Comparison with racetam-based drugs in dexamethasone muscular atrophy model (Experimental Example 4); assay type: in vivo, ICR mice
# Description: For an experimental group in the present invention, oxiracetam having a structure of Formula 1 was purchased from Tokyo Chemical Industry (Japan; Product No. 00398, CAS RN:62613-82-5, purity: 96%) and used. Other racetam drugs, such as aniracetam and nepiracetam, were purchased from Bide Pharmatech (W-44; China, Product Nos. BD114391, BD140804, purity: 96%), piracetam, phenylpiracetam, corulacetam and pramiracetam were purchased from Tokyo Chemical Industry (Japan, Product Nos. P2880, P2604, C3689, P2061, purity: 96%), levetiracetam was purchased from Roeun China, Product No. R025860, purity: 96%), brivaracetam was purchased from R&D Systems (USA, Product No. 7271, purity: 96%), rolziracetam and faroracetam were purchased from Targetmol (USA, Product Nos. T16783, T19624, purity: 96%), and rolipram was purchased from Aladdin (MAT; China, Product No. R129674, purity: 96%).
# As experimental animals, 7-week-old male ICR mice were purchased and used. […]
# To measure grip strength, a grip strength test was performed. […] After measurement before drug administration (day 0) and on day 20 after drug administration began, grip strength variation (%) after drug administration began (day 20) with respect to that before drug administration (day 0) was calculated.
# The lean body mass of the gastrocnemius muscle (GS) and the lean body mass of the tibialis anterior (TA) for each group were measured every 7 days. […] During photographing, the respiratory rates and body temperatures of the animal models were measured with an animal monitoring system (SA Instruments, USA).
# The whole body of the animal model was photographed through dual energy X-ray absorptiometry (DEXA) using iNSiGHT VET DXA (Osteosys, KR), and the lean body mass of each of the gastrocnemius muscle (GS) and the tibialis anterior (TA) was measured and calculated from the two-dimensional images of the gastrocnemius muscle (GS) and the tibialis anterior (TA) by a program using the region of interest (ROI). […]
# C2C12 myotubes = assay: Myotube diameter in doxorubicin-induced cachexia cell model (Experimental Example 8); assay type: cell-based, mouse; settings: doxorubicin 500 nM 48 h with or without oxiracetam 0.01, 0.1, 1, 10 and 30 μM; relative to control
# Method: A mouse-derived C2C12 cell line was provided from the American Type Culture Collection (ATCC, CRL-1772; Manassas, VA, USA) and cultured at 37° C. in 5% CO2. In the proliferation phase of the cells before differentiation, high concentration glucose Dulbecco's modified Eagle's medium (DMEM) containing 1% penicillin/streptomycin and 10% fetal bovine serum (FBS) medium were used, and in the differentiation induction, the FBS medium was replaced with a 2% horse serum (HS)-containing medium. The C2C12 myoblasts were seeded into a 96 well culture plate and a 6 well culture plate at 2×10^5/well and 5×10^3/well, respectively, and cultured at 37° C. in a CO2 incubator. […]
# Two days after anticancer agent and oxiracetam treatment, the anticancer agent-treated group (Doxorubicin), the oxiracetam-treated groups (Oxiracetam 0.01 μM, 0.1 μM, 1 μM, 10 μM and 30 μM), and the control (control) were photographed using an optical microscope at a room temperature, and the diameter (Diameter, %) of a myotube in each group was measured and compared.
# Statistical processing was performed using GraphPad Prism (GraphPad Software Inc., San Diego, CA, USA). The results of each repeated experiment were expressed as mean±standard error of mean, and analyzed using the analysis of variance (Tukey's test), and statistical significance was acknowledged when the P-value was 0.05 or less.
# [2] = drug 30 mg/kg/day (piracetam 100 mg/kg/day) oral 21 days + dexamethasone, DEXA every 7 days
structure (smiles),measurement,setting,value
"NC(=O)CN1CC(O)CC1=O (racemic) [oxiracetam, (RS)-2-(4-hydroxy-2-oxopyrrolidin-1-yl)acetamide]",change in grip strength,"[1]; drug 30 mg/kg/day (piracetam 100 mg/kg/day) oral 21 days + dexamethasone 10 mg/kg i.p. day 7-21, day 20 vs day 0",recovers to greater than the control
same,lean body mass of the gastrocnemius muscle (GS),[1]; [2],recover the lean body mass of the gastrocnemius muscle (GS) to the control (vehicle) level
same,lean body mass of the tibialis anterior (TA),[1]; [2],recover the lean body mass of the tibialis anterior (TA) to the control (vehicle) level
same,diameter of myotube,C2C12 myotubes,significantly recovered and greatly increased to the control (normal group) level
